Measurements published in ChEMBL document CHEMBL4130586, “Antiprotozoal Sesquiterpene Lactones and Other Constituents from Tarchonanthus camphoratus and Schkuhria pinnata” (J Nat Prod, 2018).

Columns and labels:
L6 = test: Cytotoxicity against rat L6 cells after 72 hrs by alamar blue staining based fluorescence assay; type: cell-based; conditions: L6, 72 h
[1] = test system: Trypanosoma brucei rhodesiense; test: Antitrypanosomal activity against Trypanosoma brucei rhodesiense STIB 900 bloodstream forms after 72 hrs by alamar blue staining based fluorescence assay; type: functional, organism-based; conditions: STIB 900, 72 h
[2] = Selectivity index, ratio of IC50 for rat L6 cells to IC50 for Trypanosoma brucei rhodesiense STIB 900 bloodstream forms; type: toxicity; conditions: read-out: Ratio IC50

SMILES	IC50 [1]	IC50 (L6)	selectivity ratio [2]
C=C1C(=O)O[C@@H]2/C=C(/C)[C@@H](O)C[C@H]3O[C@]3(C)C[C@@H](OC(=O)/C(=C/COC(=O)C(O)C(C)C)CO)[C@@H]12 (stereo not given in full)	0.91 µM	14.4 µM	15.8
C=C1C(=O)O[C@@H]2/C=C(/C)[C@@H](OC(C)=O)C[C@H]3O[C@]3(C)C[C@@H](OC(=O)/C(=C/CO)CO)[C@@H]12	0.92 µM	14.6 µM	15.8
C=C1C(=O)O[C@H]2[C@H]1[C@H](OC(=O)/C(=C/CO)CO)CC(=C)[C@@H]1CC(=O)C(C)[C@H]21 (stereo not given in full)	0.6 µM	12.3 µM	19.2
C=C1C[C@@H](OC(=O)/C(=C/CO)CO)[C@H]2C(=C)C(=O)O[C@@H]2[C@H]2C(C)=C[C@@H](O)[C@@H]12	7.3 µM	42.8 µM	5.9
C=C1C(=O)O[C@@H]2/C=C(\C)[C@@H](O)C/C=C(\C)C[C@@H](OC(=O)/C(=C/COC(=O)C(O)C(C)C)CO)[C@@H]12 (stereo not given in full)	2.6 µM	34.1 µM	13
C=C1C(=O)O[C@@H]2/C=C(\C)[C@@H](O)C/C=C(\C)C[C@@H](OC(=O)/C(=C/COC(=O)C(O)C(C)CC)CO)[C@@H]12 (stereo not given in full)	4 µM	42.3 µM	10.5
C=C1C(=O)O[C@H]2[C@H]1[C@H](OC(=O)/C(=C/COC(=O)C(O)C(C)C)CO)C[C@]1(C)[C@@H]2[C@H](C)C(=O)C[C@H]1O (stereo not given in full)	2.7 µM	39.7 µM	14.6
C=C1C(=O)O[C@@H]2C3O[C@]3(C)CC/C=C(\C)CC[C@@H]12 (stereo not given in full)	0.39 µM	7.2 µM	18.6
C=C1C(=O)O[C@@H]2/C=C(\C)CC/C=C(\C)C[C@@H](OC(=O)/C(=C/CO)CO)[C@@H]12	1.2 to 1.4 µM	15.5 µM	11.1

The next lines start with results.

IC50 [1]	SMILES	IC50 (L6)	selectivity ratio [2]
0.9 µM	C=C1C(=O)O[C@@H]2/C=C(/C)[C@@H]3C/C=C(/C[C@@H](OC(=O)/C(=C/CO)CO)[C@@H]12)C[C@@](O)(C(C)C)C(=O)O3	3.8 µM	4.1
0.1 µM	C=C1C(=O)O[C@@H]2/C=C(/C)[C@@H](OC(C)=O)C/C=C(\C)C[C@@H](OC(=O)c3ccoc3)[C@@H]12	2.1 µM	20.5
0.35 µM	C=C1C(=O)O[C@@H]2/C=C(/C)[C@@H](OC(C)=O)C/C=C(\C)C[C@@H](OC(=O)C3=CC(O)OC3)[C@@H]12 (stereo not given in full)	4.1 µM	11.5
1.7 µM	C=C1C(=O)O[C@@H]2/C=C(/C)[C@@H](OC(C)=O)C/C=C(\C)C[C@@H](OC(=O)/C(=C\CO)CO)[C@@H]12	54.6 µM	31.1
5.4 µM	C=C1C(=O)O[C@@H]2/C=C(\C)[C@@H](O)C/C=C(\C)C[C@@H](OC(=O)/C(C)=C/CO)[C@@H]12	51.7 µM	9.6
1.1 µM	C=C1C(=O)O[C@@H]2/C=C(/C)[C@@H](OC(C)=O)C/C=C(\C)C[C@@H](OC(=O)/C(=C/CO)CO)[C@@H]12	7.8 µM	6.9
0.82 µM	C=C1C(=O)O[C@@H]2/C=C(/C)[C@@H](OC(=O)C(O)C(C)C)C/C=C(\C)C[C@@H](OC(=O)/C(=C/CO)CO)[C@@H]12 (stereo not given in full)	11 µM	13.4
1.7 µM	C=C1C(=O)O[C@@H]2/C=C(/C)[C@@H](OC(C)=O)C/C=C(\C)C[C@@H](OC(=O)/C(C)=C/CO)[C@@H]12	7.94 µM	4.6
9.8 µM	COc1cc(CCCO)cc(O)c1OC	149 µM	15.2
0.13 µM	C=C1C(=O)O[C@@H]2/C=C(/C)[C@@H](OC(=O)C(O)C(C)C)C/C=C(\C)C[C@@H](OC(=O)c3ccoc3)[C@@H]12 (stereo not given in full)	3.9 µM	29.7
6.1 µM	COc1ccc(-c2cc(=O)c3c(O)c(OC)c(O)cc3o2)cc1 [PECTOLINARIGENIN]	20.2 µM	3.3
